In US8288389B2, “Piperazine derivative having affinity for the histamine H3 receptor” (Glaxo Group Limited, priority 2007, dated 2012):
Counter-ions that a name gives are not always drawn.

Columns and labels:
[1] = Preliminary HCl-salt-formation and crystallisation experiments (relative stability of crystal forms); type: physicochemical; conditions: compared with crystalline Form 1
From the text: Crystalline Form 1 (or a predominance of crystalline Form 1) is often formed initially depending on the conditions, but, depending on the conditions (such as the type of solvent and the solubility of crystalline Form 1 in it, and/or the temperature and/or temperature time course, and/or the contact time of the crystalline Form 1 with the solvent), the crystalline Form 1 can then often convert to crystalline Form 2 to a greater or lesser extent when in contact with a suitable solvent i.e. a solvent suitable for converting crystalline Form 1 to crystalline Form 2.

[2] = Plasma clearance in the pig-PET study; type: in vivo, Yorkshire-Landrace pig; conditions: 50 micrograms/kg i.v.
[3] = test system: male Sprague Dawley rats; experiment: Toxicity Study 1: 7-day oral repeat-dose study in male Sprague Dawley rats; type: in vivo, rat; conditions: for tolerability: male rats
Experimental: Three male rats were added at each non-zero dose level for toxicokinetic evaluation. All doses and concentrations, including analyte concentration in plasma, are expressed in terms of the parent “free base” compound.
The following endpoints/parameters were evaluated for toxicology animals: clinical observations, body weights, food consumption measurements, selected haematology and selected clinical chemistry results, liver weights, selected macroscopic and microscopic observations, and selected hepatic gene expression analysis. Toxicokinetic evaluation (serial profiling) was performed on samples collected from satellite animals on Days 1 and 7. For male rats dosed at 30 or 100 mg/kg/day, histopathology observations carried out were on kidneys, mesentery and mandibular lymph node only. For male rats dosed at 0 mg/kg/day (control) and 300 mg/kg/day, histopathology observations carried out were on adrenals, brain, heart, kidneys, liver, lung, mandibular lymph node, mesentery, stomach, testes, and thymus (except that mandibular lymph node observations were for 0 mg/kg/day dosed rats only).

[4] = test system: Sprague Dawley rats; experiment: Toxicity Study 2: 7-day oral dose range-finding study in Sprague Dawley rats; type: in vivo, rat
Experimental: Three male rats and three female rats were added at 600 mg/kg/day and 3 female rats were added at 300 mg/kg/day for toxicokinetic evaluation.
The following endpoints/parameters were evaluated for toxicology animals: clinical observations, body weights, food consumption, selected haematology, selected clinical chemistry, liver weights, and selected macroscopic and microscopic observations. Toxicokinetic evaluation was performed on samples collected on Day 1 (300 and 600 mg/kg/day dosing) and Day 7 (300 mg/kg/day dosing only).

[5] = biological target: H3 receptor (Sus scrofa, UniProt A0A287B9V8); experiment: Pig-PET study with [11C]GSK189254: pig brain H3 receptor occupancy over time and kon-koff limited model; conditions: 50 micrograms/kg i.v.; for koff: iv
[6] = biological target: T1, histamine H3 receptor (Rattus norvegicus, UniProt Q9QYN8); conditions: following oral administration to the rat; cited from earlier work
T1 construct: from tissue; host or cells: rat cerebral cortex, crude homogenate

[7] = test system: rats; conditions: certain oral doses; passive avoidance, water maze, object recognition, attentional set shift; cited from earlier work
[8] = test system: rodent models; conditions: five choice task, object recognition, elevated plus maze, acquisition of novel task, passive avoidance; cited from earlier work
[9] = average model: derived from average plasma data and average occupancy

H3 receptor, sequence (A0A287B9V8 1-448): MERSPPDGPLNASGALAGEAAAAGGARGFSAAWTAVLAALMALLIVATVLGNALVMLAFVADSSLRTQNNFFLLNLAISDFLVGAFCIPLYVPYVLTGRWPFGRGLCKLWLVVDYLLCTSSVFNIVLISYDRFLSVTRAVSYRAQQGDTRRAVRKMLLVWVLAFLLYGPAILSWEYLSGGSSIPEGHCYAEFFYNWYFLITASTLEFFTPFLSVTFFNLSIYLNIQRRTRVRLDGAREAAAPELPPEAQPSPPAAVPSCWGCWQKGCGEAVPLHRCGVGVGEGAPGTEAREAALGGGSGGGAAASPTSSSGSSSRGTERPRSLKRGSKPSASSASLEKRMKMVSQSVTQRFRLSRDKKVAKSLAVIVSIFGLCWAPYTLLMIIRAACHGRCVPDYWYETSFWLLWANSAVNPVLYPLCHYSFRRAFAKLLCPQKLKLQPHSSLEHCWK
T1 sequence (Q9QYN8 whole entry): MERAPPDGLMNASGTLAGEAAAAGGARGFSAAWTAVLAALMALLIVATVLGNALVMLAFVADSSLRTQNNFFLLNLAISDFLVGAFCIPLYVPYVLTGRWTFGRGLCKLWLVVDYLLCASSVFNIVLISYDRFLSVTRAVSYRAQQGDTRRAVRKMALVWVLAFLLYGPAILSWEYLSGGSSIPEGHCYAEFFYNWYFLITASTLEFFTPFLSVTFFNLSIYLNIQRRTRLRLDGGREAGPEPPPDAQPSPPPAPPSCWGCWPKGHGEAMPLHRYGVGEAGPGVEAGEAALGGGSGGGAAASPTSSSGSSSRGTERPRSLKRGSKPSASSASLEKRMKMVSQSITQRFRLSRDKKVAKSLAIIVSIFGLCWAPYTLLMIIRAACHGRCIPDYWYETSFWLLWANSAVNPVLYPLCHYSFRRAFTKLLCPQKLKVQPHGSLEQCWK

**Q.** Which “thermodynamic stability of the crystal form” value [1] does the source give for `CC(C)N1CCN(C(=O)c2ccc(OC3CCOCC3)cc2)CC1` [Example 3] here?
**A.** The value was “more thermodynamically stable than crystalline Form 1”.

**Q.** What does the source list for `CC(C)N1CCN(C(=O)c2ccc(OC3CCOCC3)cc2)CC1.Cl` [Example E1]?
**A.** Plasma clearance ([2]; pig 1 (individual study)): 2.9 L/h; tolerability ([3]; 300 mg/kg/day oral for 7 days (measured as the free base)): moderately well tolerated; tolerability ([3]; 30 or 100 mg/kg/day oral for 7 days (measured as the free base)): well tolerated; food consumption ([3]; rat, in vivo, po, 300 mg/kg/day): ca. 0.80 ×pretreatment; tolerability ([4]; female rats, 300 mg/kg/day oral for 7 days (measured as the free base)): moderately well tolerated; tolerability (preliminary conclusion from Toxicity Studies 1 and 2) ([4]; male and female rats, 7 days oral repeat dosing at doses of up to 300 mg/kg/day): well tolerated or moderately well tolerated; koff ([5]; PIG1, pig, pig 1 (individual study), estimated model parameter): 6.33e-05 s⁻¹; Kd (koff/kon) [5, 9]: 3.37 ng/mL; Kd (koff/kon) ([5]; mean of the individually estimated parameters, n=3 pigs): 3.35 ng/mL; reduction in pig brain H3 receptor occupancy over time, as compared to salt B ([5]; n=3 pigs, preliminary measurements): generally faster reduction in pig brain H3 receptor occupancy; koff ([5]; pig, average model: derived from average plasma data and average occupancy): 0.000152 s⁻¹; koff ([5]; pig, mean of the individually estimated parameters, n=3 pigs): 0.000243 s⁻¹; koff ([5]; pig, pig 2 (individual study), estimated model parameter): 0.00019 s⁻¹; koff ([5]; pig, pig 3 (individual study), estimated model parameter): 0.000477 s⁻¹

**Q.** With `CNC(=O)c1ccc(Oc2ccc3c(c2)CCN(C2CCC2)CC3)nc1` [GSK189254] as the molecule, how does the “[3]R-α-methylhistamine ex vivo binding in the rat cortex” value [6] read?
**A.** The value was “inhibited”.

**Q.** And the “performance of rats in cognition paradigms” value [7]?
**A.** The value was “improved performance”.

**Q.** Which “effect in rodent cognition models” value [8] does the source give for `CC(C)(C)CCC#C[C@@H]1C[C@H]1c1c[nH]cn1` [GT-2331] here?
**A.** The value was “cognitive enhancing properties”.

**Q.** For `O=C(c1ccc(OCCCc2cnc[nH]2)cc1)C1CC1` [ciproxifan], which “effect in rodent cognition models” value [8] is on record?
**A.** Its value is “cognitive enhancing properties”.

**Q.** For `NC(=NCc1ccc(Cl)cc1)SCCCc1cnc[nH]1` [clobenpropit], which “effect in rodent cognition models” value [8] is on record?
**A.** The value was “cognitive enhancing properties”.

**Q.** With `CC(C)N1CCCN(C(=O)c2ccc(OC3CCOCC3)cc2)CC1` [salt B, reference compound] as the molecule, how does the Plasma clearance ([2]; average model: derived from average plasma data) read?
**A.** The Plasma clearance was 2.9 L/h.

**Q.** And the “Kd (koff/kon)” value [5, 9]?
**A.** Its value is 1.80 ng/mL.

**Q.** With `S=C(NC1CCCCC1)N1CCC(c2cnc[nH]2)CC1` [thioperamide] as the molecule, how does the “effect in rodent cognition models” value [8] read?
**A.** The value was “cognitive enhancing properties”.
